Source: PubChem BioAssay AID2060492 (Molecular Pharmacology Branch, DTP, NCI, 2025)

System: 695427-040-R-J1-PDC complex spheroids, viability percent T/C
Assay: Anticancer human tumor 695427-040-R-J1-PDC patient-derived colon adenocarcinoma cell line growth inhibition [GQUAD]
Details: for IC50: curve of first compound; for viability, T/C: stronger effect = lower value
Outline: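 Multi-cell-type spheroids of tumor cells with HUVEC and mesenchymal stem cells, treated with drug combinations. Concentrations descend in half-log steps from near clinical Cmax, or from 10 microM where Cmax is unknown; viability read-out.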

[1] = second compound 0.0316 µM, first compound 0.0316 µM
[2] = second compound 0.0316 µM, first compound 0.1 µM
[3] = second compound 0.0316 µM, first compound 0.316 µM
[4] = second compound 0.0316 µM, first compound 1 µM
[5] = second compound 0.0316 µM, first compound 3.16 µM
[6] = second compound 0.0316 µM, first compound 10 µM
[7] = second compound 0.1 µM, first compound 0.0316 µM
[8] = second compound 0.1 µM, first compound 0.1 µM
[9] = second compound 0.1 µM, first compound 0.316 µM
[10] = second compound 0.1 µM, first compound 1 µM
[11] = second compound 0.1 µM, first compound 3.16 µM
[12] = second compound 0.1 µM, first compound 10 µM
[13] = second compound 0.316 µM, first compound 0.0316 µM
[14] = second compound 0.316 µM, first compound 0.1 µM
[15] = second compound 0.316 µM, first compound 0.316 µM
[16] = second compound 0.316 µM, first compound 1 µM
[17] = second compound 0.316 µM, first compound 3.16 µM
[18] = second compound 0.316 µM, first compound 10 µM
[19] = second compound 1 µM, first compound 0.0316 µM
[20] = second compound 1 µM, first compound 0.1 µM
[21] = second compound 1 µM, first compound 0.316 µM
[22] = second compound 1 µM, first compound 1 µM
[23] = second compound 1 µM, first compound 3.16 µM
[24] = second compound 1 µM, first compound 10 µM
[25] = second compound 3.16 µM, first compound 0.0316 µM
[26] = second compound 3.16 µM, first compound 0.1 µM
[27] = second compound 3.16 µM, first compound 0.316 µM
[28] = second compound 3.16 µM, first compound 1 µM
[29] = second compound 3.16 µM, first compound 3.16 µM
[30] = second compound 3.16 µM, first compound 10 µM
[31] = second compound 10 µM, first compound 0.0316 µM
[32] = second compound 10 µM, first compound 0.1 µM
[33] = second compound 10 µM, first compound 0.316 µM
[34] = second compound 10 µM, first compound 1 µM
[35] = second compound 10 µM, first compound 3.16 µM
[36] = second compound 10 µM, first compound 10 µM
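Note: spheroids exposed to compounds for seven days before readout.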

**Q.** With `C#Cc1c(F)ccc2cc(O)cc(-c3ncc4c(N5CC6CCC(C5)N6)nc(OCC56CCCN5CC(F)C6)nc4c3F)c12` (stereo unspecified) + CN(C)c1ccc(Nc2c3ccc(NC(=O)CCN4CCCC4)cc3nc3cc(NC(=O)CCN4CCCC4)ccc23)cc1 as the compound, how does the IC50 (second compound 0.0316 µM) read?
**A.** > 10 µM

**Q.** And the IC50 (second compound 0.1 µM)?
**A.** > 10 µM

**Q.** What about the IC50 (second compound 0.316 µM) of the same compound?
**A.** > 10 µM

**Q.** What about the IC50 (second compound 1 µM) of the same compound?
**A.** > 10 µM

**Q.** And the IC50 (second compound 3.16 µM)?
**A.** > 10 µM

**Q.** What about the IC50 (second compound 10 µM) of the same compound?
**A.** > 10 µM

**Q.** And the viability, T/C [1]?
**A.** 101%

**Q.** And the viability, T/C [2]?
**A.** 102%

**Q.** What about the viability, T/C [3] of the same compound?
**A.** 100%

**Q.** And the viability, T/C [4]?
**A.** 98.9%

**Q.** What about the viability, T/C [5] of the same compound?
**A.** 98.4%

**Q.** What about the viability, T/C [6] of the same compound?
**A.** 83.5%

**Q.** And the viability, T/C [7]?
**A.** 106%

**Q.** What about the viability, T/C [8] of the same compound?
**A.** 95.4%

**Q.** What about the viability, T/C [9] of the same compound?
**A.** 98%

**Q.** What about the viability, T/C [10] of the same compound?
**A.** 94%

**Q.** What about the viability, T/C [11] of the same compound?
**A.** 97.5%

**Q.** And the viability, T/C [12]?
**A.** 83.3%

**Q.** And the viability, T/C [13]?
**A.** 96.4%

**Q.** And the viability, T/C [14]?
**A.** 106%

**Q.** And the viability, T/C [15]?
**A.** 94.6%

**Q.** What about the viability, T/C [16] of the same compound?
**A.** 89.5%

**Q.** What about the viability, T/C [17] of the same compound?
**A.** 99.1%

**Q.** And the viability, T/C [18]?
**A.** 80.6%

**Q.** And the viability, T/C [19]?
**A.** 100%

**Q.** What about the viability, T/C [20] of the same compound?
**A.** 102%

**Q.** What about the viability, T/C [21] of the same compound?
**A.** 106%

**Q.** And the viability, T/C [22]?
**A.** 101%

**Q.** What about the viability, T/C [23] of the same compound?
**A.** 91.8%

**Q.** And the viability, T/C [24]?
**A.** 77.5%

**Q.** What about the viability, T/C [25] of the same compound?
**A.** 101%

**Q.** What about the viability, T/C [26] of the same compound?
**A.** 91%

**Q.** And the viability, T/C [27]?
**A.** 92.9%

**Q.** And the viability, T/C [28]?
**A.** 87.7%

**Q.** What about the viability, T/C [29] of the same compound?
**A.** 86.2%

**Q.** And the viability, T/C [30]?
**A.** 80.7%

**Q.** And the viability, T/C [31]?
**A.** 87.1%

**Q.** What about the viability, T/C [32] of the same compound?
**A.** 91.8%

**Q.** What about the viability, T/C [33] of the same compound?
**A.** 86.1%

**Q.** And the viability, T/C [34]?
**A.** 87.4%

**Q.** And the viability, T/C [35]?
**A.** 82.4%

**Q.** What about the viability, T/C [36] of the same compound?
**A.** 62.4%

**Q.** Which results are given for `C=CCn1c(=O)c2cnc(Nc3ccc(N4CCN(C)CC4)cc3)nc2n1-c1cccc(C(C)(C)O)n1` + CN(C)c1ccc(Nc2c3ccc(NC(=O)CCN4CCCC4)cc3nc3cc(NC(=O)CCN4CCCC4)ccc23)cc1?
**A.** IC50 (second compound 0.0316 µM): > 10 µM; IC50 (second compound 0.1 µM): > 10 µM; IC50 (second compound 0.316 µM): > 10 µM; IC50 (second compound 1 µM): > 10 µM; IC50 (second compound 3.16 µM): 8.77 µM; IC50 (second compound 10 µM): 5.2 µM; viability, T/C [1]: 104%; viability, T/C [2]: 104%; viability, T/C [3]: 87.5%; viability, T/C [4]: 83.2%; viability, T/C [5]: 66.6%; viability, T/C [6]: 61.7%; viability, T/C [7]: 97.8%; viability, T/C [8]: 93.9%; viability, T/C [9]: 93.2%; viability, T/C [10]: 77.4%; viability, T/C [11]: 71.2%; viability, T/C [12]: 59.3%; viability, T/C [13]: 101%; viability, T/C [14]: 89.1%; viability, T/C [15]: 85.9%; viability, T/C [16]: 85.2%; viability, T/C [17]: 72.8%; viability, T/C [18]: 53.3%; viability, T/C [19]: 95.5%; viability, T/C [20]: 103%; viability, T/C [21]: 81.9%; viability, T/C [22]: 77.2%; viability, T/C [23]: 66.9%; viability, T/C [24]: 52.3%; viability, T/C [25]: 95.2%; viability, T/C [26]: 91.3%; viability, T/C [27]: 87.9%; viability, T/C [28]: 80.9%; viability, T/C [29]: 63.8%; viability, T/C [30]: 48.3%; viability, T/C [31]: 91.6%; viability, T/C [32]: 84.1%; viability, T/C [33]: 82.3%; viability, T/C [34]: 67.8%; viability, T/C [35]: 56.4%; viability, T/C [36]: 42%

**Q.** For `CCCS(=O)(=O)Nc1ccc(F)c(C(=O)c2c[nH]c3ncc(-c4ccc(Cl)cc4)cc23)c1F` + CN(C)c1ccc(Nc2c3ccc(NC(=O)CCN4CCCC4)cc3nc3cc(NC(=O)CCN4CCCC4)ccc23)cc1, which IC50 (second compound 0.0316 µM) is on record?
**A.** > 10 µM

**Q.** What about the IC50 (second compound 0.1 µM) of the same compound?
**A.** > 10 µM

**Q.** And the IC50 (second compound 0.316 µM)?
**A.** > 10 µM

**Q.** What about the IC50 (second compound 1 µM) of the same compound?
**A.** > 10 µM

**Q.** What about the IC50 (second compound 3.16 µM) of the same compound?
**A.** > 10 µM

**Q.** And the IC50 (second compound 10 µM)?
**A.** > 10 µM

**Q.** What about the viability, T/C [1] of the same compound?
**A.** 108%

**Q.** And the viability, T/C [2]?
**A.** 99.9%

**Q.** And the viability, T/C [3]?
**A.** 106%

**Q.** And the viability, T/C [4]?
**A.** 106%

**Q.** And the viability, T/C [5]?
**A.** 122%

**Q.** And the viability, T/C [6]?
**A.** 68.1%

**Q.** And the viability, T/C [7]?
**A.** 103%

**Q.** And the viability, T/C [8]?
**A.** 94.5%

**Q.** What about the viability, T/C [9] of the same compound?
**A.** 104%

**Q.** And the viability, T/C [10]?
**A.** 109%

**Q.** What about the viability, T/C [11] of the same compound?
**A.** 111%

**Q.** And the viability, T/C [12]?
**A.** 65.9%

**Q.** And the viability, T/C [13]?
**A.** 105%

**Q.** What about the viability, T/C [14] of the same compound?
**A.** 108%

**Q.** What about the viability, T/C [15] of the same compound?
**A.** 101%

**Q.** What about the viability, T/C [16] of the same compound?
**A.** 106%

**Q.** What about the viability, T/C [17] of the same compound?
**A.** 123%

**Q.** And the viability, T/C [18]?
**A.** 68.3%

**Q.** What about the viability, T/C [19] of the same compound?
**A.** 98.7%

**Q.** What about the viability, T/C [20] of the same compound?
**A.** 99.3%

**Q.** What about the viability, T/C [21] of the same compound?
**A.** 107%

**Q.** And the viability, T/C [22]?
**A.** 119%

**Q.** What about the viability, T/C [23] of the same compound?
**A.** 121%

**Q.** And the viability, T/C [24]?
**A.** 64.2%

**Q.** And the viability, T/C [25]?
**A.** 91%

**Q.** What about the viability, T/C [26] of the same compound?
**A.** 103%

**Q.** And the viability, T/C [27]?
**A.** 94.5%

**Q.** And the viability, T/C [28]?
**A.** 100%

**Q.** And the viability, T/C [29]?
**A.** 110%

**Q.** What about the viability, T/C [30] of the same compound?
**A.** 72.4%

**Q.** What about the viability, T/C [31] of the same compound?
**A.** 86.6%

**Q.** What about the viability, T/C [32] of the same compound?
**A.** 89.3%

**Q.** What about the viability, T/C [33] of the same compound?
**A.** 90.9%

**Q.** And the viability, T/C [34]?
**A.** 91.2%

**Q.** What about the viability, T/C [35] of the same compound?
**A.** 90%

**Q.** What about the viability, T/C [36] of the same compound?
**A.** 67.5%
